The values that follow come from patent US10398651B2, “Carrier-free nanoparticles” (priority 2016, dated 2019).

Series [1] deals with SKOV-3 human ovarian cancer cells. As to the kind of experiment: IC50 determination, MTT assay, SKOV-3 cells. It counts as cell-based. The note with it: SK-OV-3, SKOV3, 24 h treatment + 48 h post-treatment incubation. As for the experimental part:
(§1) Cytotoxicity of Cim-F-alb was tested with B16F10 cells and SKOV-3 human ovarian cancer cells (ATCC, Manassas, Va., USA) over a range of PTX concentrations. SKOV-3 cells were grown in RPMI-1640 medium containing 10% FBS and penicillin (100 IU/mL) and streptomycin (100 μg/mL). Both cells were treated with Cim-F-alb for 24 h, followed by post-treatment incubation in NC-free medium for 12-48 h. Free PTX and Abraxane were tested in the same manner for comparison. Cim-F-alb and Abraxane were directly reconstituted in PBS and serially diluted by a factor of 10. Free PTX solution was prepared as PTX stock solution in 50% DMSO at a concentration of 1 mg/mL and diluted in PBS. The maximum possible concentration of DMSO in the medium was 5% v/v. SKOV-3 cells and B16F10 cells grown in RPMI-1640 were tested with the MTT assay, and B16F10 cells grown in DMEM were tested with PI staining and flow cytometry. IC50 was calculated with GraphPad Prism 6 (La Jolla, Calif., USA).
For orientation: Formazan colour is commonly taken as a measure of viable cells.

A short description of series [2]: As-received PTX dissolved in FBS-containing media after 6 h. It counts as physicochemical. The note with it: 6 h at 37° C. The procedure: FIG. 23. […] One milligram of PTX was added to 1 mL of each medium and incubated for 6 h with agitation. A supernatant was separated from the undissolved PTX by centrifugation at 135,700 rcf for 10 min, extracted with 3 mL of ethyl acetate, which was evaporated and reconstituted in 50% ACN for HPLC analysis. […] The FBS suspension was sampled at 6 h to quantify dissolved PTX by that time. A supernatant was separated from the sample by 10 min centrifugation at 135,700 rcf and analyzed in the same way. The incubation time was limited to 6 h due to the instability of PTX in serum. Since the extraction method cannot differentiate protein-bound PTX from free PTX, the measured values represent the sum of serum protein-bound and free PTX. • [1] G. Bajaj, M. R. Kim, S. I. Mohammed, Y. Yeo, Hyaluronic acid-based hydrogel for regional delivery of paclitaxel to intraperitoneal tumors, J. Control. Release 158 (2012) 386-392. • [2] I. Ringel, S. B. Horwitz, Taxol is converted to 7-epitaxol, a biologically active isomer, in cell culture medium, J. Pharmacol. Exp. Ther. 242 (1987) 692-698.

Series [3] concerns B16F10 cells. As to the kind of experiment: IC50 determination, PI staining and flow cytometry, B16F10 cells. The note with it: Mus musculus, B16-F10, 24 h treatment, PI staining + flow cytometry. It counts as cell-based. As for the experimental part: B16F10 cells grown in DMEM medium was tested with propidium iodide (PI) staining due to the production of melanin [32], which interferes with colorimetric assay. B16F10 cells were seeded in a 6 well plate at a density of 100,000 cells per well. After overnight incubation, the medium was replaced with fresh medium, to which 100 μL of PNC-alb, Cim-C-alb, or Cim-F-alb in PBS was added to provide the final concentration eq. to 30 μg/mL PTX. After incubation with NC for 3 h, cells were washed with PBS two times to remove NC, followed by additional incubation for 21 h in NC-free medium. Then, B16F10 cells were trypsinized and stained with PI (1 μg/mL) for 15 min in dark at room temperature. The cells were centrifuged at 300 g for 5 minutes to remove extra PI dye and reconstituted in PBS for flow cytometry (Accuri C6, BD Biosciences, San Jose, Calif.). At least 15,000 gated events were acquired, and FL-2 channel was monitored to determine the population of PI-stained cells.
Cytotoxicity of Cim-F-alb was tested with B16F10 cells and SKOV-3 human ovarian cancer cells (ATCC, Manassas, Va., USA) over a range of PTX concentrations. SKOV-3 cells were grown in RPMI-1640 medium containing 10% FBS and penicillin (100 IU/mL) and streptomycin (100 μg/mL). […] IC50 was calculated with GraphPad Prism 6 (La Jolla, Calif., USA).
(In general: Flow cytometry measures light scatter and fluorescence of single cells or particles in a stream.)

In series [4] the test system is B16F10 cells. Nature of the series: IC50 determination, MTT assay, B16F10 cells. It counts as cell-based. The following applies: Mus musculus. The procedure:
Cytotoxicity of NC was tested with B16F10 cells. B16F10 cells were grown in RPMI-1640 or DMEM medium supplemented with 10% FBS, penicillin (100 IU/mL) and streptomycin (100 μg/mL). B16F10 cells grown in RPMI-1640 were seeded in a 96 well plate at a density of 10,000 cells per well. After overnight incubation, the culture medium was replaced with a fresh cell culture medium, to which PNC-alb, Cim-C-alb, or Cim-F-alb were added to provide the final concentration eq. to 30 μg/mL PTX. After 3 h incubation, cells were washed with PBS twice to remove NC, followed by additional incubation for 21 h in NC-free medium. The cell viability was determined by the MTT (3-(4,5-dimethylthiazol-2-yl)-2,5-diphenyltetrazolium bromide) assay. Cells were treated with 75 μg of MTT and incubated for 3.5 h. The formazan crystals were dissolved in stop/solubilization solution (50% DMF, 20% SDS, pH 5) and quantified with a SpectraMax M3 microplate reader (Molecular Devices, CA, USA) at the wavelength of 562 nm.
as §1

In a further series the test system is HT-29 colon cancer cells. The following applies: cited from earlier work.
In series [5] the test system is HeLa cervical cancer cells. The following applies: cited from earlier work.
The test system of series [6] is K562 chronic myelogenous leukemia cells. The following applies: cited from earlier work.

For orientation: IC50 means the point on the concentration scale where inhibition reaches its midpoint. `CC(=O)O[C@H]1C(=O)[C@@]2(C)[C@H]([C@H](OC(=O)c3ccccc3)[C@]3(O)C[C@H](OC(=O)[C@H](O)[C@@H](NC(=O)c4ccccc4)c4ccccc4)C(C)=C1C3(C)C)[C@]1(OC(C)=O)CO[C@@H]1C[C@@H]2O` [Free PTX, paclitaxel]: the IC50 in series [1] amounted to 34.2 nM; with B16F10 cells [3], 423 nM; with B16F10 cells [4] (B16-F10, 24 h, B16F10, 24 h treatment + 24 h post-treatment incubation), 213 nM; in the series with B16F10 cells [4] (B16-F10, B16F10, 24 h treatment + 12 h post-treatment incubation), 91.3 nM; in the series on B16F10 cells [4] (B16-F10, B16F10, 24 h treatment + 48 h post-treatment incubation), 765 nM. Moreover, the “PTX dissolved in 10% FBS” value in series [2] stood at 9.6 ± 2.6 µg/mL. In addition, the “PTX dissolved in 50% FBS” value in series [2] stood at 47.5 ± 11.4 µg/mL. The “PTX dissolved in undiluted FBS” value in series [2] turned out to be 71.9 ± 8.2 µg/mL.
Consider `CCCCCCCCCCCCCCCC[N+](C)(C)C.[Br-]` [CTAB, hexadecyltrimethylammonium bromide], for which the cytotoxicity result (in the series with HT-29 colon cancer cells; in series [5]; in series [6]) was “cytotoxic” in each case.
